Drawing on ChEMBL document CHEMBL2074484, “Molecular cloning and characterization of two novel human renal organic anion transporters (hOAT1 and hOAT3)” (Biochem Biophys Res Commun, 1999), this text covers Activity for 7 molecules.

Type in all cases: functional, cell-based
What all share (details): oocyte

The target in data set [1] is T1, Organic anion transporter 3 (Homo sapiens, UniProt Q8TCC7).
T1 sequence (Q8TCC7 whole entry): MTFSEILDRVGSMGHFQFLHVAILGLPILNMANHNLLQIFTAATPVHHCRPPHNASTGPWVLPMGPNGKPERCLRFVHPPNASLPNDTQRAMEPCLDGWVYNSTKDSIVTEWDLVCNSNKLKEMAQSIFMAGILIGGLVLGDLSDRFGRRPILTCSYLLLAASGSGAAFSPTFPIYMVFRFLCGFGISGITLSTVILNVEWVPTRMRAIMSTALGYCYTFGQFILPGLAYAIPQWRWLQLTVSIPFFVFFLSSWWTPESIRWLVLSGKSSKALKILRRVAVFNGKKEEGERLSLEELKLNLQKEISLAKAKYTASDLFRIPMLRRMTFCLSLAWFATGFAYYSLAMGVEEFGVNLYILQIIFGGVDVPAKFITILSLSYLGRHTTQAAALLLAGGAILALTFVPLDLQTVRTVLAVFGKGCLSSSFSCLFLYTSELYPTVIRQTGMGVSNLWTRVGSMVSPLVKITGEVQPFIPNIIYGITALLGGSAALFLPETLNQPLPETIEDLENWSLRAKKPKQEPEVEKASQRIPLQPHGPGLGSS
Kind of data set: (§1) TP_TRANSPORTER: uptake in Xenopus laevis oocytes.

For data set [2], the target named is T2, Solute carrier family 22 member 6 (Homo sapiens, UniProt Q4U2R8).
T2 sequence (Q4U2R8 whole entry): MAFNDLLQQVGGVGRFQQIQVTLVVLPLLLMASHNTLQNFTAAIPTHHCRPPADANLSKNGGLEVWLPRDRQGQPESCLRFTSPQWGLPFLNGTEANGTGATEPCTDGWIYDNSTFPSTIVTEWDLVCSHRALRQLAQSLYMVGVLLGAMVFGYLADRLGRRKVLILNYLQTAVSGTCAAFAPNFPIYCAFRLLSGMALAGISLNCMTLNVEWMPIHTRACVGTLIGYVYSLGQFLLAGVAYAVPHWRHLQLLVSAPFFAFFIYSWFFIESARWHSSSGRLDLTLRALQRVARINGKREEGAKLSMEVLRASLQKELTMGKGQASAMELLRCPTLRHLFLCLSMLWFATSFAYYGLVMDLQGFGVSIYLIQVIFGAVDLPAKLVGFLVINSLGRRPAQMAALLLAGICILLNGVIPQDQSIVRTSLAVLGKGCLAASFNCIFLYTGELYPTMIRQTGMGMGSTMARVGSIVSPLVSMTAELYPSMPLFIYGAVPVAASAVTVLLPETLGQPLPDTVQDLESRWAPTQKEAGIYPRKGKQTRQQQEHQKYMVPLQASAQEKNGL
As to the kind of experiment: TP_TRANSPORTER: inhibition of PAH uptake (PAH: 1 uM, Bumetamide: 100 uM) in Xenopus laevis oocytes.

The target in data set [3] is T2, Solute carrier family 22 member 6. Kind of data set: TP_TRANSPORTER: inhibition of PAH uptake (PAH: 1 uM, Hydrochlorothiazide: 100 uM) in Xenopus laevis oocytes.
Data set [4] shares this target. As to the kind of experiment: TP_TRANSPORTER: inhibition of PAH uptake (PAH: 1 uM, Losartan: 100 uM) in Xenopus laevis oocytes.
For data set [5] the target is unchanged. Described as §1.
For data set [6] the target is unchanged. Kind of data set: TP_TRANSPORTER: inhibition of PAH uptake (PAH: 1 uM, Urate: 100 uM) in Xenopus laevis oocytes.

Consider `Nc1ccc(C(=O)NCC(=O)O)cc1` [AMINOHIPPURIC ACID], for which the Activity entry in data set [1] was “is not a substrate [-]”. `CCCCNc1cc(C(=O)O)cc(S(N)(=O)=O)c1Oc1ccccc1` [BUMETANIDE]: the Activity result in data set [2] was “inhibitor [(at a rough estimate) 45 % of control]”. Regarding `NS(=O)(=O)c1cc2c(cc1Cl)NCNS2(=O)=O` [HYDROCHLOROTHIAZIDE], in data set [3], the Activity entry was “is not an inhibitor [-]”. Regarding `CCCCc1nc(Cl)c(CO)n1Cc1ccc(-c2ccccc2-c2nn[nH]n2)cc1` [LOSARTAN], in data set [4], the Activity result was “inhibitor [(at a rough estimate) 25 % of control]”.

With `O=C([O-])C(=O)[O-].[Na+].[Na+]` [SODIUM OXALATE], in data set [1], the Activity entry was “is not a substrate [-]”. Still for that read-out and setting: in the case of `CC[N+](CC)(CC)CC` [TETRYLAMMONIUM] it was “is not a substrate [-]”. For `O=c1[nH]c(=O)c2[nH]c(=O)[nH]c2[nH]1` [URIC ACID], the values for the Activity entry in data set [1], in data set [5] and in data set [6] were “is not a substrate [-]”, “is not a substrate [-]” and “is not an inhibitor [-]”, respectively.
